Tests used:
[1] = target: T1, NSD2 (Homo sapiens, UniProt O96028); test: Western blotting of NSD2 protein level in KMS11 cells; assay type: cell-based
T1 sequence (O96028 1-1365): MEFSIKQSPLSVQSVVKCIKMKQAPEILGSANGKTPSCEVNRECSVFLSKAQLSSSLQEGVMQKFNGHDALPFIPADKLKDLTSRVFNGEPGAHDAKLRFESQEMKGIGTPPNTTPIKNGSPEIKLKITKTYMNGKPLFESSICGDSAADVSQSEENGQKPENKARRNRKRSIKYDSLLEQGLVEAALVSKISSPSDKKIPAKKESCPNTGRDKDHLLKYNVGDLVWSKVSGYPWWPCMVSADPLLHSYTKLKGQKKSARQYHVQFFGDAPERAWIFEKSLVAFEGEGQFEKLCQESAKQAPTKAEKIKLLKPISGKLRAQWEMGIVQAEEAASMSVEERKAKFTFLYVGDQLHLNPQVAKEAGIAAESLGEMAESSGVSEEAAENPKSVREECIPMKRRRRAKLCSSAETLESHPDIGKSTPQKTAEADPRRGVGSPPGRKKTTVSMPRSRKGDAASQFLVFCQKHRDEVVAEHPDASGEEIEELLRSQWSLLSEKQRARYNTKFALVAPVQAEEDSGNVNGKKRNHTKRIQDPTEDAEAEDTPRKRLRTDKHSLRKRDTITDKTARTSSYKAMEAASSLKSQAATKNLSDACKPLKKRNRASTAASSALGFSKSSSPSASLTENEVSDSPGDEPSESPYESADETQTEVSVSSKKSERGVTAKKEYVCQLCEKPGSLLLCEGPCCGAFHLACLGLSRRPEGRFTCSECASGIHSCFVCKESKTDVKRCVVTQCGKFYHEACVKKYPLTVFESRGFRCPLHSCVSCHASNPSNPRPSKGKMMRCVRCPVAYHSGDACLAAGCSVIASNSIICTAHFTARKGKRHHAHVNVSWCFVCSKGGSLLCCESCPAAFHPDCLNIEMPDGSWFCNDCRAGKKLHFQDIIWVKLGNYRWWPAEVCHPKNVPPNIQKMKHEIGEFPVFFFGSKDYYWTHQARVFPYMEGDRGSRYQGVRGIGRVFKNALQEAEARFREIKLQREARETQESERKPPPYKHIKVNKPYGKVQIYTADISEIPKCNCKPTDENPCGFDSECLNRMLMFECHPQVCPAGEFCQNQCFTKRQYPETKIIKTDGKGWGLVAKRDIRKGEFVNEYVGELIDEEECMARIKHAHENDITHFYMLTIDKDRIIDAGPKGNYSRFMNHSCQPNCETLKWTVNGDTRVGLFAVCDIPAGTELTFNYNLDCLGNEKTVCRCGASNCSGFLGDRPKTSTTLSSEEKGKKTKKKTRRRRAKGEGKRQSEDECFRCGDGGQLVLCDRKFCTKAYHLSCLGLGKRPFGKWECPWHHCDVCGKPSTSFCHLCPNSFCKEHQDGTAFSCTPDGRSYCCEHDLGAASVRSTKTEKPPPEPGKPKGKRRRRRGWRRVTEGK

[2] = target: T1, NSD2; test: Western blotting of NSD2 protein level in H929 cells; assay type: cell-based
[3] = test system: GSPT1; test: Western blotting of GSPT1 protein level in KMS11 cells; assay type: cell-based, Human; details: 2.5 μM, 72 h
[4] = test system: GSPT1; test: Western blotting of GSPT1 protein level in H929 cells; assay type: cell-based, Human; details: 2.5 μM, 72 h
[5] = target: T2, IKZF1 (Homo sapiens, UniProt Q13422+Q96SW2); test: Western blotting of IKZF1 protein level in KMS11 cells; assay type: cell-based; details: 2.5 μM, 72 h
T2 sequence (Q13422 whole entry): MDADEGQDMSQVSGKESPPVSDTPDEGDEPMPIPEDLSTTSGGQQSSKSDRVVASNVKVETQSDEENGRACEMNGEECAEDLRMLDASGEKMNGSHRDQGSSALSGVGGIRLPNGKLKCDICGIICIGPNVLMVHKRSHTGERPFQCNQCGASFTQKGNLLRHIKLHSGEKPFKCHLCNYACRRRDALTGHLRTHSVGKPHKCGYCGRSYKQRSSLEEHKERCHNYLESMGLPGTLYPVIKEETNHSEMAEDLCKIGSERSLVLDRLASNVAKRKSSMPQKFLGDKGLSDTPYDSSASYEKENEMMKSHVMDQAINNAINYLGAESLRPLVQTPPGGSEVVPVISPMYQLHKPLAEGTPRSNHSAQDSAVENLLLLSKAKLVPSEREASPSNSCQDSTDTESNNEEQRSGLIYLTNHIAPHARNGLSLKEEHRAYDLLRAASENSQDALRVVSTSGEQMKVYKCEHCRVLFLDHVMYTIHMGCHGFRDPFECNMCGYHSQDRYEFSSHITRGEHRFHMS
T2 sequence (Q96SW2 whole entry): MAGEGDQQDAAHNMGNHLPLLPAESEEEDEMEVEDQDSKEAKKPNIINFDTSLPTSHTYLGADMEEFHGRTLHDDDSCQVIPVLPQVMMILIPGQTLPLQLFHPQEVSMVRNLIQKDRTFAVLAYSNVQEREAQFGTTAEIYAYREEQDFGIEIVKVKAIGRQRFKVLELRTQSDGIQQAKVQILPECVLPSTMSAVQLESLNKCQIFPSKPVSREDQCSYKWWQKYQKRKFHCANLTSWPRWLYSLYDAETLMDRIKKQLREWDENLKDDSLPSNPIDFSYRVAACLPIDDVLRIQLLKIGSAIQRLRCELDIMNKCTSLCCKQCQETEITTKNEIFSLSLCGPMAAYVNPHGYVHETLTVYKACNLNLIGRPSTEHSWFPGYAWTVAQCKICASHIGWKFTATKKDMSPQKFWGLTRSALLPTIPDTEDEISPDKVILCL
T2 sequence (Q16531 whole entry partner): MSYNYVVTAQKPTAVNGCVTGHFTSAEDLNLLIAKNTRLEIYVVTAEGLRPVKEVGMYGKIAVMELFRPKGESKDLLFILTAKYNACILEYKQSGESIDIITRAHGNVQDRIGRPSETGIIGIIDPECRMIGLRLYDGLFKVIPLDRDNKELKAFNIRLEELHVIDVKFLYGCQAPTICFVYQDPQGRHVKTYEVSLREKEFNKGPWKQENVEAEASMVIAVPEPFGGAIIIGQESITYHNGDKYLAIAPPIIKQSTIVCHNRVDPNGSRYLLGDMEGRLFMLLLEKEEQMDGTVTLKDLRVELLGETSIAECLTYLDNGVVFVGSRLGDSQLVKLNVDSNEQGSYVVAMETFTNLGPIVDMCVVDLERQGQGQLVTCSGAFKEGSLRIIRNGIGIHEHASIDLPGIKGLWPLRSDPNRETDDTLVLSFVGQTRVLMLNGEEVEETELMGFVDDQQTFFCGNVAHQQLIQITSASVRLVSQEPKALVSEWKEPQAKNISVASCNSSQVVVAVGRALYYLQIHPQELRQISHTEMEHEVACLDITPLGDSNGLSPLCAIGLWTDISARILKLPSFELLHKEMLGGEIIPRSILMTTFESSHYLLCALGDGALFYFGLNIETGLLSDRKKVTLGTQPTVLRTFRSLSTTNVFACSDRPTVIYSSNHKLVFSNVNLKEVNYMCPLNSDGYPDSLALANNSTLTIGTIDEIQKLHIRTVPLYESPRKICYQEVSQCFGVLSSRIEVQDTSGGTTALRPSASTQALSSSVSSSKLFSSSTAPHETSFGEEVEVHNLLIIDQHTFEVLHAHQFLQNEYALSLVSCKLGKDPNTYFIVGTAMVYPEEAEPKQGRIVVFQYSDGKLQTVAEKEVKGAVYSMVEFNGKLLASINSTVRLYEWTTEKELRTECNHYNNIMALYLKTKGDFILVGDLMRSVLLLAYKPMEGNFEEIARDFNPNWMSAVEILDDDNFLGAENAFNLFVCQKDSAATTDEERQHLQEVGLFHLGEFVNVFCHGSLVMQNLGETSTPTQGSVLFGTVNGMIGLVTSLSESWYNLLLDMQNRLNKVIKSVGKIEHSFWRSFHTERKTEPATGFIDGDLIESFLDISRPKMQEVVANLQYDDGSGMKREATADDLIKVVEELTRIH

[6] = target: T2, IKZF1; test: Western blotting of IKZF1 protein level in H929 cells; assay type: cell-based; details: 2.5 μM, 72 h
[7] = test system: KMS11 cells; test: Cell growth inhibition assay in KMS11 cells; assay type: cell-based, Human; details: 2.5 μM, 8 days
[8] = test system: H929 cells; test: Cell growth inhibition assay in H929 cells; assay type: cell-based, Human; details: 2.5 μM, 8 days
[9] = target: T3, NSD2-PWWP1 domain (Homo sapiens, UniProt O96028); test: Isothermal titration calorimetry; details: ITC, inverse titration, 50 mM Tris-HCl pH 6.8, 25 °C; mean ± SD from two independent experiments
T3 sequence (O96028 208-369): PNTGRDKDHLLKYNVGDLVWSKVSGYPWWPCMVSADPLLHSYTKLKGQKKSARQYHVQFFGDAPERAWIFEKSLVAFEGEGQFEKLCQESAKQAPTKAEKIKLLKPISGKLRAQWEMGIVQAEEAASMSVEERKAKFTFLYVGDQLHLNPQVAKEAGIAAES

[10] = target: T1, NSD2; test: Western blotting of NSD2 protein level in 293FT cells; assay type: cell-based; details: 293FT cells; for NSD2 degradation: SI Figure S1A
[11] = target: T4, IKZF3 (Homo sapiens, UniProt Q96SW2+Q9UKT9); test: Western blotting of IKZF3 protein level in 293FT cells; assay type: cell-based; details: 293FT cells, SI Figure S1A
T4 sequence (Q9UKT9 whole entry): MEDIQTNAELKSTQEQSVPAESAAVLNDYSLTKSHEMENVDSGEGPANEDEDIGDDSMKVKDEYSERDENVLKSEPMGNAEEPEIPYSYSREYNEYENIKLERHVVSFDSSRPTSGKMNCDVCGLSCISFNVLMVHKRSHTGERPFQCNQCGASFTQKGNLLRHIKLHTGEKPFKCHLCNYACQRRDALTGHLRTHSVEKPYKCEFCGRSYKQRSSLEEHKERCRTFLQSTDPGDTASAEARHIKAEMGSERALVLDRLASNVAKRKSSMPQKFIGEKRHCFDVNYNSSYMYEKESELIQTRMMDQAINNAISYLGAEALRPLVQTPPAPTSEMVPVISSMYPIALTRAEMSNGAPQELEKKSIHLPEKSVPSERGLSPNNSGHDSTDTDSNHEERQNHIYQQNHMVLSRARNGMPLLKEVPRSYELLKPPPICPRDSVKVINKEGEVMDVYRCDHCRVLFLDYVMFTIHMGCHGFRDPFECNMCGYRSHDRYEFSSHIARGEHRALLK
T4 sequence (Q96SW2 whole entry): as the sequence (Q96SW2 whole entry) above
T4 sequence (Q16531 whole entry partner): as the sequence (Q16531 whole entry partner) above

[12] = test system: GSPT1; test: Western blotting of GSPT1 protein level in 293FT cells; assay type: cell-based; details: SI Figure S1A
[13] = target: T4, IKZF3; test: Western blotting of IKZF3 protein level in KMS11 cells; assay type: cell-based; details: 2.5 μM, 72 h
[14] = target: T4, IKZF3; test: Western blotting of IKZF3 protein level in H929 cells; assay type: cell-based; details: 2.5 μM, 72 h

Row | Structure (SMILES) | NSD2 degradation ([1]; 2.5 μM, 72 h) | NSD2 degradation ([2]; 2.5 μM, 72 h) | GSPT1 degradation [3] | GSPT1 degradation [4] | IKZF1 protein level [5] | IKZF1 protein level [6] | Cell growth inhibition [7] | Cell growth inhibition [8] | Kd [9] | NSD2 degradation ([10]; 2.5 μM) | NSD2 degradation ([10]; 10 μM) | NSD2 degradation ([10]; 0.1 and 0.5 μM) | NSD2 protein level ([10]; 2.5 and 10 μM, 48 h, Figure 2) | IKZF3 degradation [11] | GSPT1 degradation [12] | NSD2 degradation ([1]; SI Figure S1B) | NSD2 degradation ([2]; SI Figure S1B) | IKZF3 protein level [13] | IKZF3 protein level [14]
1 | CC(C)N(Cc1ccc(C(=O)Nc2ccc(OCCCNC(=O)CNc3cccc4c3C(=O)N(C3CCC(=O)NC3=O)C4=O)cn2)cc1)C(=O)c1ccc2c(c1)OCC(=O)N2 (stereo not shown) [Compound 18, N-(4-((5-(3-(2-((2-(2,6-Dioxopiperidin-3-yl)-1,3-dioxoisoindolin-4-yl)amino)acetamido)propoxy)pyridin-2-yl)carbamoyl)benzyl)-N-isopropyl-3-oxo-3,4-dihydro-2H-benzo[b][1,4]oxazine-7-carboxamide] | did not induce obvious NSD2 degradation | did not induce obvious NSD2 degradation | did not degrade GSPT1 | did not degrade GSPT1 | clearly reduced the IKZF1 protein level | clearly reduced the IKZF1 protein level | displayed some growth inhibition | displayed some growth inhibition | did not show any appreciable binding | – | – | – | – | – | – | – | – | – | –
2 | Cc1ncsc1-c1ccc(CNC(=O)[C@@H]2C[C@@H](O)CN2C(=O)[C@@H](NC(=O)CCOCCOCCNC(=O)c2ccc(NC(=O)c3ccc(CN(C(=O)c4ccc5c(c4)OCC(=O)N5)C4CC4)cc3)cc2)C(C)(C)C)cc1 [Compound 1, N-Cyclopropyl-N-(4-((4-((2-(2-(3-(((S)-1-((2S,4R)-4-hydroxy-2-((4-(4-methylthiazol-5-yl)benzyl)carbamoyl)pyrrolidin-1-yl)-3,3-dimethyl-1-oxobutan-2-yl)amino)-3-oxopropoxy)ethoxy)ethyl)-carbamoyl)phenyl)carbamoyl)benzyl)-3-oxo-3,4-dihydro-2H-benzo[b][1,4]oxazine-7-carboxamide] | – | – | – | – | – | – | – | – | – | confirmed the NSD2 degradation effect | hook affect | did not induce NSD2 degradation | clearly reduced the NSD2 protein level with a slight hook effect at 10μM | did not degrade GSPT1 or IKZF3 | did not degrade GSPT1 or IKZF3 | ineffective in degrading NSD2 | ineffective in degrading NSD2 | – | –
3 | CN1C(=O)CCC(N2C(=O)c3cccc(NCC(=O)NCCCOc4ccc(NC(=O)c5ccc(CN(C(=O)c6ccc7c(c6)OCC(=O)N7)C6CC6)cc5)nc4)c3C2=O)C1=O (stereo not shown) [Compound 17, N-Cydopropyl-N-(4-((5-(3-(2-((2-(1-methyl-2,6-dioxopiperidin-3-yl)-1,3-dioxoisoindolin-4-yl)amino)acetamido)propoxy)pyridin-2-yl)carbamoyl)benzyl)-3-oxo-3,4-dihydro-2H-benzo[b][1,4]oxazine-7-carboxamide] | did not induce obvious NSD2 degradation | did not induce obvious NSD2 degradation | did not degrade GSPT1 | did not degrade GSPT1 | did not display any degradation effect | did not display any degradation effect | showed little effect on cell growth inhibition | showed little effect on cell growth inhibition | – | – | – | – | – | – | – | – | – | did not display any degradation effect | did not display any degradation effect
4 | O=C1COc2cc(C(=O)N(Cc3ccc(C(=O)Nc4ccncn4)cc3)C3CC3)ccc2N1 [UNC6934, reference compound] | – | – | – | – | did not display any degradation effect | did not display any degradation effect | – | – | – | – | – | – | – | – | – | – | – | did not display any degradation effect | did not display any degradation effect

Source: article PMC9378504 (Journal of medicinal chemistry, 2022)
